Assay results reported in paper PMC8305076, “Comprehensive Evaluation of Biological Effects of Pentathiepins on Various Human Cancer Cell Lines and Insights into Their Mode of Action” (International Journal of Molecular Sciences, 2021).
Where two headings read alike, the source gives them in different places.

Columns and labels:
MCF-7 = test: MTT cell viability assay; type: cell-based, human
Protocol: (§1) Distinct MTT cell viability and crystal violet cell proliferation assays were performed to assess the cytotoxicity of the compounds 1–6 on 14 human cancer cell lines. In the viability assay, cells with intact mitochondria and thus active dehydrogenases are competent to convert MTT to the corresponding insoluble formazan. The formazan can be photometrically detected after solubilization and allows for indirect conclusions about the viability of the cells as an IC50 value. In the crystal violet assay, cells are stained by the binding of the dye to the chromatin, thus allowing for a quantification of biomass that remains adherent after a treatment in comparison with a control after a specific time. Potency is defined as the growth inhibitory concentration 50% (GI50).
(§2) In addition to performing the cell viability assay under normoxia (19% atmospheric oxygen), incubations were also conducted under hypoxic conditions, i.e., atmospheric oxygen levels of 1% during the treatment for 48 h. Hypoxia is a favorable condition of the tumor microenvironment that is connected with poor outcome. Therefore, the low oxygen condition mimics better the tumor environment. The biological effect of the pentathiepins under this condition provides insight into their dependency for oxygen, which has been postulated a key component in the proposed mechanism of action (Figure 3). Consistent with the proposed mechanism of action for five of the compounds, potency decreased under hypoxic conditions; in fact for 6, the half-maximal inhibitory concentration exceeded the highest tested concentration of 10 µM in four cell lines (Figure 6, Table S3). […] In contrast to the other compounds, in some cell lines, the cytotoxic effects of 1 were more pronounced under oxygen-reduced incubation conditions (Figure 6), indicating a tangential role of oxygen availability for this pentathiepin. Especially for the breast cancer cell line MCF-7, the cytotoxicity increased substantially, indicated by a decrease of the IC50 from >10.0 µM to about 1.0 µM.
The effect of the pentathiepins on the viability of the cell lines was assessed via an MTT assay, performed as previously described. Healthy and viable cells convert the yellow soluble 3-(4,5-dimethylthiazol-2-yl)-2,5-diphenyltetrazolium bromide to the insoluble purple corresponding formazan, which can be spectrophotometrically measured. For this assay, 5000 cells (1 250 for LCLC-103H) in 0.1 mL of medium were seeded per well of a 96-well plate and incubated at standard conditions for 24 h prior to treatment. A serial dilution of the test compounds was prepared in medium, covering final concentrations from 10.0 to 0.04 µM, and 0.1 mL of the working solution was added to each well in triplicate. After 48 h, 20 µL of a 2.5 mg/mL MTT in PBS solution was pipetted into each well and further incubated for 4 h at standard conditions. Thereafter, medium was replaced with 50 µL DMSO, and the plates were put on a shaker for 5 min and subsequently read at λ = 570 nm, with a SpectraMax 384plus (Molecular Devices, Sunnyvale, CA, USA). The cell viabilities of the treatment conditions were calculated in relation to a solvent control sample. The absolute IC50 was calculated via nonlinear regression followed by interpolation of the dose–response graphs in Prism 7 (GraphPad, San Diego, CA, USA). The IC90 was derived from the IC50 by using the slope factor of the dose–response graph with the tool QuickCalcs from GraphPad (GraphPad Software, San Diego, CA, USA).

[1] = test system: panel of 14 human cancer cell lines; test: MTT cell viability assay, whole panel; type: cell-based; set-up: key to Cytotoxicity: no impact (0); weak impact (+); strong impact (++); conditions: for Cytotoxicity: summary grade
Protocol: as §1, §2
The effect of the pentathiepins on the viability of the cell lines was assessed via an MTT assay, performed as previously described. Healthy and viable cells convert the yellow soluble 3-(4,5-dimethylthiazol-2-yl)-2,5-diphenyltetrazolium bromide to the insoluble purple corresponding formazan, which can be spectrophotometrically measured. For this assay, 5000 cells (1 250 for LCLC-103H) in 0.1 mL of medium were seeded per well of a 96-well plate and incubated at standard conditions for 24 h prior to treatment. A serial dilution of the test compounds was prepared in medium, covering final concentrations from 10.0 to 0.04 µM, and 0.1 mL of the working solution was added to each well in triplicate. After 48 h, 20 µL of a 2.5 mg/mL MTT in PBS solution was pipetted into each well and further incubated for 4 h at standard conditions. Thereafter, medium was replaced with 50 µL DMSO, and the plates were put on a shaker for 5 min and subsequently read at λ = 570 nm, with a SpectraMax 384plus (Molecular Devices, Sunnyvale, CA, USA). The cell viabilities of the treatment conditions were calculated in relation to a solvent control sample. The absolute IC50 was calculated via nonlinear regression followed by interpolation of the dose–response graphs in Prism 7 (GraphPad, San Diego, CA, USA). The IC90 was derived from the IC50 by using the slope factor of the dose–response graph with the tool QuickCalcs from GraphPad (GraphPad Software, San Diego, CA, USA). […]

[2] = test system: HAP-1, HAP-1.KO.GPx1, A2780, and Siso; test: apoptosis (summary); type: cell-based, human; set-up: key: no impact (0); weak impact (+); strong impact (++); conditions: summary grade
Protocol: As reported in our earlier publication, a representative pentathiepin was capable of inducing apoptosis in cancer cell lines. Here, we tested compounds 1–6 for their ability to trigger this particular modality of cell death in a subset of four cell lines: HAP-1, HAP-1.KO.GPx1, A2780, and Siso. A flow cytometric assay was performed, allowing us to discriminate between viable, early, and late apoptotic cells (representative dot plots can be found in Figure S47). FITC-labeled annexin V was used to assess the externalization of phosphatidyl serine as a hallmark of early apoptosis induction. The addition of propidium iodide (PI) enabled the detection of late apoptotic cells as it only permeates porous cell membranes and exerts fluorescence once bound to double-stranded DNA.
The annexin V-FITC/PI assay, which discriminates between viable, early, and late apoptotic cells within a sample population, was performed according to the manufacturer’s instructions (Miltenyi Biotec, Teterow, Germany). Briefly, 125,000 cells were seeded in 2 mL per well of a 6-well plate, allowed to adhere overnight, and subsequently treated with the respective pentathiepin (IC90, see Table S4) diluted in 3 mL of medium. After incubation periods of 6, 24, or 48 h, the cells were harvested, washed with the provided binding buffer, and stained with the annexin V-FITC reagent for 20 min at room temperature (RT) in the dark. After another washing step, the pellet was resuspended, and PI was added immediately before flow cytometric measurement at λEx/Em = 488/525 ± 50 nm for FITC and λEx/Em = 488/655–730 nm for PI with the MACSquant Analyzer 10 (Miltenyi Biotec, Teterow, Germany).

[3] = Homo sapiens, MCF7, 48 h, hypoxic (1% O2), read-out: IC50 MTT-H mean
[4] = Homo sapiens, MCF7, 48 h, normoxic (19% O2), read-out: IC50 MTT-N mean
[5] = Homo sapiens, mean over the cell line panel, hypoxic, read-out: IC50 MTT-H, mean per compound
[6] = Homo sapiens, mean over the cell line panel, normoxic, read-out: IC50 MTT-N, mean per compound
[7] = mean over the cell line panel, normoxic, read-out: IC50 MTT-N, mean per compound

IC50 (MCF-7; [3]) [µM] | IC50 (MCF-7; [4]) [µM] | IC50 (MCF-7; 48 h, hypoxic (1% O2), read-out: IC50 MTT-H mean) [µM] | Compound | IC50 [1, 5] [µM] | IC50 [1, 6] [µM] | Cytotoxicity [1] | Apoptosis [2] | IC50 ([1]; Homo sapiens, hypoxic conditions, in four cell lines, exceeded highest tested concentration, read-out: half-maximal inhibitory concentration) [µM] | IC50 [1, 7] [µM]
3.56 | 3.21 |  | CCOc1c2c(c3ccc(C(=O)N(CC)CC)cn13)SSSSS2 [Compound 4, 6-Ethoxy-N,N’-diethyl-[1,2,3,4,5]pentathiepino[6,7-a]indolizine-9-carboxamide] | 2.05 | 1.01 | ++ | + |  | 
> 10 | 3.99 |  | CCOc1c2c(c3ccc(C(=O)N4CCN(S(=O)(=O)c5ccc(C)cc5)CC4)cn13)SSSSS2 [Compound 6, (6-Ethoxy-[1,2,3,4,5]pentathiepino[6,7-a]indolizin-9-yl)(4-tosylpiperazinyl)methanone] | 2.46 | 2.36 | + | + | > 10 | 2.36
> 10 | 3.04 |  | CCOc1c2c(c3ccc(C(=O)N4CCCCC4)cn13)SSSSS2 [Compound 2, (6-Ethoxy-[1,2,3,4,5]pentathiepino[6,7-a]indolizin-9-yl)(piperidinyl)methanone] | 2.19 | 1.38 | + | + |  | 
3.01 | 1.64 |  | CCOc1c2c(c3ccc(C(=O)N4CCN(C(=O)c5ccc(F)cc5)CC4)cn13)SSSSS2 [Compound 5, (6-Ethoxy-[1,2,3,4,5]pentathiepino[6,7-a]indolizin-9-yl)(4-(4-fluorobenzoyl)piperazinyl)methanone] | 1.29 | 0.839 | ++ | ++ |  | 
3.56 | 1.68 |  | CCOc1c2c(c3ccc(C(=O)N4CCOCC4)cn13)SSSSS2 [Compound 3, (6-Ethoxy-[1,2,3,4,5]pentathiepino[6,7-a]indolizin-9-yl)(morpholino)methanone] | 1.72 | 0.789 | ++ | ++ |  | 
~1 | > 10 | 0.97 | CCOc1c2c(c3cnc4[nH]c(-c5ccc(OC)cc5)cc4n13)SSSSS2 [Compound 1, 11-Ethoxy-2-(4-methoxyphenyl)-3H-[1,2,3,4,5]pentathiepino[6′,7′:3,4]pyrrolo[1,2-a]pyrrolo[2,3-e]pyrazine] | 0.487 | 0.72 | ++ | + |  | 0.716
